The values below are quoted from earlier work in patent publication US20210134402A1, “METHODS AND SYSTEMS FOR PREDICTING SUCCESS RATES OF CLINICAL TRIALS” (THE TRUSTEES OF COLUMBIA UNIVERSITY IN THE CITY OF NEW YORK, priority 2018, published 2021).

The conditions of the data set: trial in follicular lymphoma.

Regarding `Nc1ccccc1NC(=O)c1ccc(CNc2nccc(-c3cccnc3)n2)cc1` [mocetinostat], the “side effects observed in the trial” value was “anaemia, neutropenia, nausea, and diarrhea”; the trial status result is given as “put on hold due to toxicity concerns”.
